Earlier results in patent US6838050B1, “Methods and devices for providing anti-infective activity to a medical device” (Oxibio, Inc., priority 1999, dated 2005).

Columns and labels:
[1] = human

## II [free iodine, elemental iodine]
Bacteria and viruses
  free iodine level at which effective microbial killing occurs: not less than 0.1 ppm
  level in solution sufficient to kill bacteria and viruses: A few parts per million
[1]
  upper daily threshold for total iodine exposure posing no significant health threat: ≤ 1000 micrograms per day
other
  upper limit of solubility: ~320 ppm
